Results taken from patent US10378046B2, “Method of targeting mismatched DNA using d8 square planar metal complexes” (The University of Hong Kong, priority 2015, dated 2019).

Columns and labels:
Assay type in all cases: binding
CC mismatched DNA [1] = experiment: Isothermal titration calorimetry with CC mismatched DNA; details: 0.1 mM complex titrated by 0.75 mM DNA; 50 mM NaCl, 2 mM Tris, pH 7.5
Source text: ITC measures the heat absorbed or generated during a bi-molecular binding event. During ITC experiment of titrating known concentration of titrant (DNA molecules) to known quantity of titrate (Pt(II) complexes), Pt(II) complexes would bind onto the DNA molecules, generating incremental heat changes (in the unit of microcalories (μcal)). Through accurate measurement of the heat changes in each step of the titration and fitting the data by using a non-liner least square method, the best-fitted graph would yield the binding constant (K) of the bi-molecular interaction.
To determine the binding constant of Pt(II) complexes with CC mismatched DNA, 0.1 mM of Pt(II) complex in an aqueous buffer solution (50 mM NaCl, 2 mM Tris, pH 7.5) was titrated by 0.75 mM of DNA. Heat released from each step of titration had been recorded.

matched DNA [2] = experiment: Isothermal titration calorimetry with matched DNA; details: 0.1 mM complex titrated by 0.75 mM DNA; 50 mM NaCl, 2 mM Tris, pH 7.5
CC mismatched DNA [3] = experiment: Emission enhancement of complexes upon titration with CC mismatched DNA; details: complex 5 μM, DNA 10 μM; for increase in emission intensity in the presence of CC mismatched DNA: aqueous buffer 50 mM NaCl, 2 mM Tris, pH 7.5; for ratio of emission enhancement by CC mismatched DNA to that by matched DNA (ΔIcc/ΔImat): aqueous buffer pH 7.5
Protocol: (§1) FIGS. 1A and 1B are graphs showing the emission spectra of complex 5 (5 μM) in an aqueous buffer solution (50 mM NaCl, 2 mM Tris, pH 7.5) after binding to different concentrations of CC mismatched DNA (left) and well-matched DNA (right).
(§2) FIG. 4 is a graph showing the emission enhancement of different complexes (5 μM) towards CC mismatched DNA and matched DNA (10 μM). FIG. 5 is a graph showing the difference in emission enhancement between CC mismatched DNA and matched DNA by different complexes.

matched DNA [4] = experiment: Emission enhancement of complexes upon titration with well-matched DNA; details: complex 5 μM, DNA 10 μM; aqueous buffer 50 mM NaCl, 2 mM Tris, pH 7.5
Protocol: as §1, §2
Upon addition of CC mismatch DNA, a growth of the emission band was observed, and a 27-fold increase in emission intensity was found when the concentration of CC mismatched DNA was twice as much as that of the concentration of complex 5 (FIGS. 1A and 1B). It is noteworthy that the emission enhancement of complex 5 towards CC mismatched DNA was around 7-fold more than that toward matched DNA (FIG. 2).

Structure (SMILES)	increase in emission intensity in the presence of CC mismatched DNA (CC mismatched DNA [3])	increase in emission intensity in the presence of matched DNA (matched DNA [4])	ratio of emission enhancement by CC mismatched DNA to that by matched DNA (ΔIcc/ΔImat) (CC mismatched DNA [3])	other results
CCCCN1C=CN(Cc2ccccc2)[CH]1[Pt]12[c]3ccccc3-c3cccc([n+]31)-c1cccc[n+]12 (centres unmarked) [Complex 5]	27 fold			binding constant (K) with CC mismatched DNA by ITC (CC mismatched DNA [1]): 1.18×10^4; heat change in the binding of matched DNA (ITC) (matched DNA [2]): no significant heat change
OCCN1C=CN(Cc2ccccc2)[CH]1[Pt]12[c]3ccccc3-c3cccc([n+]31)-c1cccc[n+]12 (centres unmarked) [Complex 9]		strong emission enhancement	smaller ratios of emission enhancement by CC mismatched DNA to the enhancement by matched DNA than complex 5	
CN1C=CN(C)[CH]1[Pt]12[c]3ccccc3-c3cccc([n+]31)-c1cccc[n+]12 (centres unmarked) [Complex 1]				difference in heat change between titration with CC mismatched DNA and matched DNA (ITC) (CC mismatched DNA [1]): no distinguishable difference in heat change
CCCCN1C=CN(Cc2ccccc2)[CH]1[Pt]12[c]3ccccc3-c3cc(-c4ccccc4)cc([n+]31)-c1cccc[n+]12 (centres unmarked) [Complex 16]	no emission enhancement	no emission enhancement		
C1=CN(CN2C=CN(Cc3ccccc3)[CH]2[Pt]23[c]4ccccc4-c4cccc([n+]42)-c2cccc[n+]23)[CH]([Pt]23[c]4ccccc4-c4cccc([n+]42)-c2cccc[n+]23)N1Cc1ccccc1 (centres unmarked) [Complex 21]			largest ΔIcc/ΔImat value	
CCCCN1C=CN(Cc2ccc3ccccc3c2)[CH]1[Pt]12[c]3ccccc3-c3cccc([n+]31)-c1cccc[n+]12 (centres unmarked) [Complex 11]	no emission enhancement	no emission enhancement		
C1=CN(Cc2ccccc2)[CH]([Pt]23[c]4ccccc4-c4cccc([n+]42)-c2cccc[n+]23)N1Cc1ccccc1 (centres unmarked) [Complex 8]	small emission enhancements	small emission enhancements	smaller ratios of emission enhancement by CC mismatched DNA to the enhancement by matched DNA than complex 5	
